# From US20090203776A1, “METHODS OF USING MENTHOL PROPYLENEGLYCOL-CARBONATE AND ANALOGS THEREOF FOR PRODUCING ANTI-INFLAMMATORY AND ANTI-ANGIOGENIC EFFECTS” (priority 2004, published 2009)
# Tests used:
# [1] = test system: TPA-induced inflammatory response (mouse ear edema); experiment: TPA-induced mouse ear edema, topical application; format: in vivo, mice; conditions: for anti-inflammatory effect (in words): TPA-induced inflammatory response, topical; for Anti-inflammatory Effect (% of control): reduction in ear thickness vs control group
# Protocol: Edema was induced in mice by topical application of 10 μl of TPA (Tetradecnoylphorbol acetate) in acetone (2.5 μg/ear) to both the inner and outer surface of one ear of each mouse used in the experiment. Each test compound, diluted with acetone to a concentration of 10% was applied topically to the inflamed mouse ear immediately after TPA application, so as to deliver 2.5 mg/ear. The reference drug, indomethacin (0.5 mg/ear), was administered as a positive control. The thickness of each ear was measured before treatment and 4 hours after induction of inflammation, using a micrometer (Mitutoyo Co.). Anti-inflammatory effect was expressed as the reduction in ear thickness with respect to the control group.
# [2] = test system: HUVE (Human Umbilical Vein Endothelial) cells; experiment: HUVE cell proliferation in the presence of bFGF, XTT; format: cell-based; conditions: 48 hours; for Proliferation (%): bFGF only = 100, no bFGF = 0; for Average (relative cell number, XTT): with bFGF
# Protocol: HUVE (Human Umbilical Vein Endothelial) cells were isolated from human umbilical cord veins by a method of Jaffe et al. (Jaffe, E. A., Nachman, R. L., Becker, C. G., and Minick, C. R. Culture of Human endothelial cells derived from umbilical veins. J. Clin. Invest. 52: 2745-2756, 1973). HUVE cells were confirmed by immunostaining with antibody against factor VIII. The cells were grown in M199 medium (Gibco BRL, Grand Island, N.Y.) supplemented with 10% fetal bovine serum, 100 units/mL penicillin, 100 μg/mL streptomycin, 50 μg/mL endothelial cell growth supplement, and 5 units/mL heparin at 37° C. in an atmosphere of 5% CO2-95% air.
# 1×10^4 HUVE cells were plated in each well of 96 well plates and five different concentrations ranging from 1 to 100 of racemic menthol propyleneglycol-carbonate were tested in the presence of bFGF used as maximum proliferation control. Cells were cultured for an additional 48 hours, and relative cell numbers in each well were determined by XTT Cell Proliferation Kit (Roche).
# [3] = test system: aortic rings (angiogenic sprouting / microvessel formation); experiment: ex vivo rat aortic ring angiogenesis assay; format: cell-based, Sprague Dawley rats; conditions: for % Inhibition (microvessel density) / Microvessel Density (pixel^2): day 10; for Microvessel Density (pixel^2): 5 aortic rings, ECGS as inducer; for anti-angiogenic effect (in words): rat aortic ring assay, 1, 10, and 100 μM
# Source text: The effect of racemic menthol propyleneglycol-carbonate on angiogenesis was studied by culturing aortic explants in three-dimensional matrix gels according to the procedure of Kruger and Figg (Kruger E. A. and Figg, W. D. Protein Binding Alters the Activity of Suramin, Carboxyamidotriazole, and UCN-01 in an ex Vivo Rat Aortic Ring Angiogenesis Assay Clinical Cancer Research 7:1867-1872, 2001). Thoracic aortas were excised from 8-week-old mail Sprague Dawley rats and the fibroadipose tissue was removed. The aortas were sectioned into 1-mm-long cross-sections, rinsed with Human Endothelial-SFM (GIBCO), placed on the Matrigel-coated wells, covered with additional 50 μl Matrigel, and allowed to gel for more than 30 min at 37° C., 5% CO2. All the rings were cultured in Human Endothelial-SFM (GIBCO) supplemented with […] of ECGS (Endothelial Cell Growth Supplement, Sigma) as an angiogenesis inducer. Racemic menthol propylene-carbonate diluted with enthanol was added to the culture medium at final concentrations of 1, 10, and 100 μM. Ethanol alone (1%) was added to the culture medium as a vehicle control. All assays were performed by using 5 aortic rings per sample. Aortic rings were photographed on day 10. The area of angiogenic sprouting was calculated using Image-Pro Plus software (Media Cybernetics). Microvessel densities are reported in square pixels.
# Ha-CaT cells = experiment: cell cytotoxicity assay, XTT; format: cell-based; conditions: for Cell Viability (%): 48 hours, Ha-CaT
# Protocol: 5×10^3 Ha-CaT cells were plated in each well of 96 well plates and racemic menthol propyleneglycol-carbonate was added at various concentrations. The plates were incubated for another 48 hours and the viable cells were measured by XTT Cell Proliferation Kit (Roche). More than 70% of Ha-CaT cells were viable even at high concentration of 100 μM.
# [4] = 2.5 mg/ear topical (10% in acetone), 4 hours after TPA 2.5 μg/ear
smiles,measurement,setting,value
"CC1CCC(C(C)C)C(OCC(O)CO)C1 (centres unmarked) [menthoxy-propane-1,2-diol]",anti-inflammatory effect (in words),[1],Satisfactory anti-inflammatory effects
same,Anti-inflammatory Effect (% of control),[1]; [4],27 % of control
CC(O)COC(=O)OC1CC(C)CCC1C(C)C (racemic) [racemic menthol propyleneglycol-carbonate],Proliferation (%),[2]; 1 μM,97.6%
same,"Average (relative cell number, XTT)",[2]; 1 μM,1.0623
same,Proliferation (%),[2]; 5 μM,93.9%
same,"Average (relative cell number, XTT)",[2]; 5 μM,1.0305
same,Proliferation (%),[2]; 10 μM,95.3%
same,"Average (relative cell number, XTT)",[2]; 10 μM,1.0425
same,Proliferation (%),[2]; 50 μM,97.6%
same,"Average (relative cell number, XTT)",[2]; 50 μM,1.0621
same,Proliferation (%),[2]; 100 μM,80.0%
same,"Average (relative cell number, XTT)",[2]; 100 μM,0.9121
same,anti-inflammatory effect (in words),[1],Satisfactory anti-inflammatory effects
same,Anti-inflammatory Effect (% of control),[1]; [4],23 % of control
same,% Inhibition (microvessel density),[3]; 1 uM,15%
same,Microvessel Density (pixel^2),[3]; 1 uM,13.4 ± 4.1 pixel^2
same,% Inhibition (microvessel density),[3]; 10 uM,22%
same,Microvessel Density (pixel^2),[3]; 10 uM,12.2 ± 2.5 pixel^2
same,% Inhibition (microvessel density),[3]; 100 uM,33%
same,Microvessel Density (pixel^2),[3]; 100 uM,10.6 ± 3.8 pixel^2
same,anti-angiogenic effect (in words),[3],Satisfactory anti-angiogenic effect
same,anti-angiogenic effect (in words),[3]; listed as racemic menthol propylene-carbonate,inhibited microvessel formation in rat aortic ring assay in a dose dependent manner
same,Cell Viability (%),Ha-CaT cells; 0.1 uM,100%
same,Cell Viability (%),Ha-CaT cells; 1.0 uM,100%
same,Cell Viability (%),Ha-CaT cells; 5.0 uM,96.5%
same,Cell Viability (%),Ha-CaT cells; 10.0 uM,96.3%
same,Cell Viability (%),Ha-CaT cells; 50.0 uM,81.8%
same,cytotoxic effect on normal cells (in words),"Ha-CaT cells; Ha-CaT cells, up to 100 μM",non-toxic against normal cells
CC1CCC(C(C)C)C(OC(=O)OCCCCCCCCCO)C1 (centres unmarked) [menthyl-9-hydroxynonyl-carbonate],anti-inflammatory effect (in words),[1],Satisfactory anti-inflammatory effects
same,Anti-inflammatory Effect (% of control),[1]; [4],45 % of control
"CC1CCC(C(C)C)C(O)C1 (centres unmarked) [(l)-Menthol, reference compound]",anti-inflammatory effect (in words),[1],no appreciable anti-inflammatory effect
same,Anti-inflammatory Effect (% of control),[1]; [4],0 % of control
"COc1ccc2c(c1)c(CC(=O)O)c(C)n2C(=O)c1ccc(Cl)cc1 [Indomethacin, reference compound]",Anti-inflammatory Effect (% of control),"[1]; positive control, 0.5 mg/ear, 4 hours after TPA",96 % of control
C=C(C)C1CCC(C)CC1OC(=O)OCC(C)O (centres unmarked) [isopulegol propyleneglycol-carbonate],anti-inflammatory effect (in words),[1],Satisfactory anti-inflammatory effects
same,Anti-inflammatory Effect (% of control),[1]; [4],33 % of control
